The assay is described as follows: Inhibition of Brucella suis histidinol dehydrogenase assessed as NADH released as a by-product preincubated for 5 min at 30 degC by spectrophotometric method.
The IC50 is the midpoint of a concentration-inhibition curve. Regarding `N[C@@H](Cc1c[nH]cn1)C(=O)Cc1ccc(F)cc1F`, the IC50 is 0.01 µM.
Turning to `Cc1ccc(CC(=O)[C@@H](N)Cc2c[nH]cn2)cc1`, the IC50 was determined as 0.015 µM.
Take `N[C@@H](Cc1c[nH]cn1)C(=O)Cc1ccc(Br)cc1`: the IC50 was determined as 0.006 µM.
Take `N[C@@H](Cc1c[nH]cn1)C(=O)Cc1ccc(-c2ccccc2)cc1`: the IC50 stood at 0.012 µM.
The figure for `N[C@@H](Cc1c[nH]cn1)C(=O)Cc1ccc(Cl)cc1` is 0.012 µM; for `COC(=O)[C@@H]1Cc2cncn2C(=O)N1` it is 532 µM.
On to `O=C(Cc1ccc(Br)cc1)[C@@H]1Cc2cncn2C(=O)N1`, for which the IC50 came out at 98 µM.
For the compound `O=C(Cc1ccc(Cl)cc1)[C@@H]1Cc2cncn2C(=O)N1`, the IC50 was determined as 92 µM.
In the case of `Cc1ccc(CC(=O)[C@@H]2Cc3cncn3C(=O)N2)cc1`, the IC50 was 113 µM.
Regarding `O=C(Cc1ccc(F)cc1F)[C@@H]1Cc2cncn2C(=O)N1`, the IC50 was 143 µM.
Take `O=C(Cc1ccc(-c2ccccc2)cc1)[C@@H]1Cc2cncn2C(=O)N1`: the IC50 was determined as 86 µM.
For the compound `CCCCCc1ccc(C#Cc2ccc(CC(=O)[C@@H]3Cc4cncn4C(=O)N3)cc2)cc1`, the IC50 amounted to 175 µM.
Regarding `COC(=O)[C@@H]1Cc2cncn2C(=S)N1`, the IC50 amounted to 18 µM.
As for `O=C(Cc1ccc(Br)cc1)[C@@H]1Cc2cncn2C(=S)N1`, the IC50 is 105 µM.
Take `O=C(Cc1ccc(Cl)cc1)[C@@H]1Cc2cncn2C(=S)N1`: the IC50 came to 74 µM.
As for `Cc1ccc(CC(=O)[C@@H]2Cc3cncn3C(=S)N2)cc1`, the IC50 was 95 µM.
Under `O=C(Cc1ccc(F)cc1F)[C@@H]1Cc2cncn2C(=S)N1` stands 95 µM.
As to `O=C(Cc1ccc(-c2ccccc2)cc1)[C@@H]1Cc2cncn2C(=S)N1`, the IC50 amounted to 5 µM.
As to `CCCCCc1ccc(C#Cc2ccc(CC(=O)[C@@H]3Cc4cncn4C(=S)N3)cc2)cc1`, the IC50 turned out to be 322 µM.
For `CCCCCc1ccc(C#Cc2ccc(CC(=O)[C@@H](N)Cc3c[nH]cn3)cc2)cc1`, the IC50 worked out at 0.009 µM.

The record behind these values is ChEMBL document CHEMBL3351562, “Oxo- and thiooxo-imidazo[1,5-c]pyrimidine molecule library: beyond their interest in inhibition of Brucella suis histidinol dehydrogenase, a powerful protection tool in the synthesis of histidine analogues” (Bioorg Med Chem Lett, 2014).
